From US20020035146A1, “Antifungal compounds and compositions and antifungal use thereof” (priority 2000, published 2002) come the findings set out here.

One test concerns Phytophthora capsici. The format is cell-based. As to conditions: spore suspension, 25° C., 5 days, compound encapsulated in α-cyclodextrin (0.14% by weight).
The next test concerns Pythium ultimum. The format is cell-based. As to conditions: mycelial homogenate, 25° C., 2 days, compound encapsulated in α-cyclodextrin (0.14% by weight).
In the next test the test system is Rhizoctonia solani. In kind it is cell-based. As to conditions: mycelial homogenate, 25° C., 5 days, compound encapsulated in α-cyclodextrin (0.14% by weight).
In another test the test system is Botrytis cinerea spores. Briefly: Inhibition of germination of Botrytis cinerea spores (germination-associated adhesion in microtiter plates, sulforhodamine B). The format is cell-based. The conditions noted are these: B. cinerea spores in SDB, 25° C., 5.5 hours; compound 1 encapsulated in α-cyclodextrin (0.14% by weight). The procedure: Compounds were evaluated for the ability to inhibit germination of Botrytis cinerea spores using an assay which measures the inhibition of germination-associated adhesion in microtiter plates. […] This solution was then diluted with SDB to give a solution concentration of compound 2 of 1000 ppm. Comparison compound, AVG, was dissolved in SDB at 5 mg/ml. Two-fold serial dilutions of the solutions of these compounds in SDB were made in 100 μl aliquots of SDB in 96-well microtiter plates. Spore suspension of B. cinerea (100 μl at 2×10^5 spores/ml) was added to the wells. The plates were then incubated at 25° C. for 5.5 hours at which time spores in control wells had germinated. The medium containing unbound spores was removed by inverting and flicking the microtiter plate to remove as much liquid as possible. Quantitation of the adhered spores was achieved by measuring their cellular protein content using sulforhodamine B (see Skehan et al., Journal of the National Cancer Institute, 82, 1107-1112 (1990)), measuring absorbance at 564 nm. Inhibition of adhesion was determined by comparing the absorbance value in a well containing fungicide with the absorbance in control wells without fungicide. EC50 values for germination inhibition were determined from dose-response curves.

In another test the test system is Pyricularia oryzae. In kind it is cell-based. The conditions noted are these: spore suspension, 25° C., 5 days, compound encapsulated in α-cyclodextrin (0.14% by weight).
The test system of a further test is Botrytis cinerea. Briefly: Technical material v. formulation: inhibition of fungal growth in sealed vials (sulforhodamine B). In kind it is cell-based. As to conditions: technical material added in acetone, 16 hours. The procedure:
Since compound 1 is a gas at room temperature its activity as a technical material in solution was evaluated in sealed vials with a small head space as follows. Compound 1, formulated by encapsulation in a-cyclodextrin, was also tested for comparison.
Compound 1 (technical material) was added to 21×50 mm glass vials on dry ice as the appropriate amount of a 14% (w/v) solution in acetone to provide the desired concentrations. (The acetone solutions were kept on dry ice or in a freezer at −80° C. until used.) Controls received the same volumes of acetone alone. A spore suspension (8 ml) of Botrytis cinerea at 2.5×10^4 spores/ml in two-fold diluted SDB was added to each vial. The vials were immediately sealed with polyethylene plugs and placed in a […] incubator for 16 hours. The extent of fungal growth in the vials was determined by measuring their cellular protein content using sulforhodamine B (Skehan, et al., Journal of the National Cancer Institute 82, 1107-1112 (1990)), and the percent inhibition of growth was calculated by comparing growth in the treatments with growth in the controls.
The desired amounts of Compound 1, formulated by encapsulation in α-cyclodextrin ([…]) were added to glass vials. A spore suspension (8 ml) of Botrytis cinerea at 2.5×10^4 spores/ml in two-fold diluted SDB was added to each vial, and vials processed as described above.

Another test deals with Septoria nodorum. In kind it is cell-based. As to conditions: spore suspension, 25° C., 2 days, compound encapsulated in α-cyclodextrin (0.14% by weight).
Test [1] has as its system Botrytis rot on rose petals. Briefly: Suppression of Botrytis rot on rose petals. In kind it is in vivo. The conditions noted are these: white rose petals exposed to 100 ppm in the gas phase for 90 minutes before inoculation; assessed after 10 days; two trials combined; control 66.7. As to the method:
Freshly cut white roses were purchased from Zieger & Sons, Inc. rose growers. Non senescing petals were chosen to perform the experiment. Petals were placed in plastic petri dishes (100×20 mm) each containing a moist #3 Whatman filter paper with one petal per petri dish.
Compound 1, formulated as in Example 1 (0.778 g) was dissolved in 20 ml hot water in a 100 ml jar sealed with a cap. When the powder was dissolved, the jar was placed in a 4.8 liter cabinet containing three petri dishes (without the lids) with petals. The cap of the jar was quickly removed and the cabinets sealed for ninety (90) minutes. The concentration of Compound 1 in the gas phase was 100 ppm.
After exposure to Compound 1 at 100 ppm the petals were inoculated with two 20μl drops of spore suspension containing 1×10^6 spores per ml. Controls were inoculated without prior exposure to Compound 1.
Lids were placed on the petri dishes and the dishes were transferred to a plant growth chamber set at a 12 hour photoperiod, a 20° C. day temperature and 18° C. night temperature, and 70% relative humidity to allow disease development. The number of petals with sporulating lesions was determined after 10 days. Two trials were conducted with 3 petals per treatment in each trial. The combined results from the two trials were as follows: […]

Test [2] has as its system Colletotrichum lagenarium. The format is cell-based. The conditions noted are these: spore suspension, 25° C., 5 days, compound encapsulated in α-cyclodextrin (0.14% by weight).

For the compound `CC1=CC1` [Compound 1, 1-methylcyclopropene], the “EC50 (mycelial growth)” value in the test on Phytophthora capsici was 6.9 ppm; with Pythium ultimum, 2.6 ppm; in the test on Rhizoctonia solani, 7.4 ppm; with Pyricularia oryzae, 6.7 ppm; in the test on Septoria nodorum, 22.5 ppm; in [2], above 70 ppm. Besides, in the test with Botrytis cinerea spores, the “EC50 for germination inhibition” value was determined as 37 ppm. The entries for the “% Inhibition of growth” value with Botrytis cinerea (175 ppm), in the test with Botrytis cinerea (350 ppm) and with Botrytis cinerea (525 ppm) were 30.1%, 99.4% and 99.8%, respectively. Further, in [1], the “Petals with sporulating lesions (%)” value amounted to 16.7%.
Regarding `CCCCCCCCC1=CC1(F)F` [Compound 2, 1-n-octyl-3,3-difluorocyclopropene], the “EC50 for germination inhibition” value in the test on Botrytis cinerea spores was 3.3 ppm.

Broadly, the % Inhibition of growth is how much of the control response was suppressed. Low readings indicate a response near the control, high ones a response far below the control.
